Patent publication US20090018189A1, “Hormone Sensitive Lipase Modulators And Methods Of Use” (DEVIRIS, priority 2007, published 2009)

Molecular target: T1, recombinant HSL (Homo sapiens, UniProt Q05469)
T1 sequence (Q05469 1-1076): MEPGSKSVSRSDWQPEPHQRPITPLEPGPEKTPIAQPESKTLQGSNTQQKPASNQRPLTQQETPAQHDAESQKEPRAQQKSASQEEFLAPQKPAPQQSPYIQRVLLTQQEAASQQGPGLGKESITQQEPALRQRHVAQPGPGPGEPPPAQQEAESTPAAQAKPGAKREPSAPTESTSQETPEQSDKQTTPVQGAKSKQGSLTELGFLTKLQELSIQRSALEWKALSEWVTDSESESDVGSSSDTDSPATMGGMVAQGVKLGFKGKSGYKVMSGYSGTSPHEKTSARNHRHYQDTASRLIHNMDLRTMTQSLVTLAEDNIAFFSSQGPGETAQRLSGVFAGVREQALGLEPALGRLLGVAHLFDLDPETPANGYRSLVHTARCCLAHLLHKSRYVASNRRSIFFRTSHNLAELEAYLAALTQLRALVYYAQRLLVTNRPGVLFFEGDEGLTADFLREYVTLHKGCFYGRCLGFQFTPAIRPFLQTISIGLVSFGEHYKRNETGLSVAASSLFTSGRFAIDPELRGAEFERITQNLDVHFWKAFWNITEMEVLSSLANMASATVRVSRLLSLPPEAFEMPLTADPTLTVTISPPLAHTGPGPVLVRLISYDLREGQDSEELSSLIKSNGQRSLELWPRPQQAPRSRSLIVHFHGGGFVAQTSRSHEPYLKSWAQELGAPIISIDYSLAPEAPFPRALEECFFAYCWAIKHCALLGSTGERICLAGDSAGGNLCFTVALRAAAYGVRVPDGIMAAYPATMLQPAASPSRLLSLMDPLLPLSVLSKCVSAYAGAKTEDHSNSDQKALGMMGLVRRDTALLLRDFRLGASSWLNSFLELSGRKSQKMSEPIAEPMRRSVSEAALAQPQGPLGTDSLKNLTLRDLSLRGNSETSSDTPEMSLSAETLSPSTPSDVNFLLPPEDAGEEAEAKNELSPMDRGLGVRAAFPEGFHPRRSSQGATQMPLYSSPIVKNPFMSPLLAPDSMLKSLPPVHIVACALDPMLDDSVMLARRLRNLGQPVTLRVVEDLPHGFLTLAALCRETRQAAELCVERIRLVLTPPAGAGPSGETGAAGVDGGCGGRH
Test: Inhibition of recombinant HSL activity
Format: biochemical
Procedure: Compounds 1-7 were dissolved in 20% DMSO as 10 mg/mL stock, and used in assays with recombinant HSL to test for the potency for inhibiting HSL activity, the protocol for which is described in International Patent Application No. PCT/US07/00284, which is incorporated by reference in its entirety herein. Each compound's inhibitory effect on HSL is shown in FIG. 1 and 2, with Compound 1 having an IC50 of about 0.1 to about 0.2 mg/mL and Compound 5 showing about 40% inhibition at 0.4 mg/mL.

IC50 (compound stock 10 mg/mL in 20% DMSO, read-out: IC50 for inhibiting HSL activity) [µM] | inhibition at 400 µg/mL (at 0.4 mg/mL) [%] | SMILES
242 to 484 |  | CCN(CC)C(CC(=O)OCCc1ccc(O)cc1)CC(=O)OCc1ccccc1 (centres unmarked) [Compound 1]
 | ~40 | COC(=O)C(=O)NC(CC(=O)NCCc1ccc(O)cc1)CC(=O)OCc1ccccc1 (centres unmarked) [Compound 5]
